# Where two headings read alike, the source gives them in different places.
# Biological target: T1, hFPR2 (Homo sapiens, UniProt P25090)
# T1 construct: expressed in transfected cells
# T1 sequence (P25090 1-351): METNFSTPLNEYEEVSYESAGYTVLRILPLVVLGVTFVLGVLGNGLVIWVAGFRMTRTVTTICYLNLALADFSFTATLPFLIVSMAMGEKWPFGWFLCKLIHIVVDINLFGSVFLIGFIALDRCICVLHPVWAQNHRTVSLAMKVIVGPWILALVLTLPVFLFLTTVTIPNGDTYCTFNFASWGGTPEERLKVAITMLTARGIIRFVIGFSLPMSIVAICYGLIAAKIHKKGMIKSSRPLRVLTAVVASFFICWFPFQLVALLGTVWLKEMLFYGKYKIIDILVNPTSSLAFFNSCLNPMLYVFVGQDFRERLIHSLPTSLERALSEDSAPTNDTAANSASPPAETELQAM
# Assay: ERK1/2 phosphorylation (AlphaScreen SureFire) in hFPR2-FlpIn-CHO cells
# Type: cell-based
# Conditions: for Time of maximal ERK1/2 phosphorylation in hFPR2-CHO cells: 10 μM, pilot timecourse; for EC50: read-out: pEC50, ERK1/2 phosphorylation, hFPR2-Flpln-CHO (converted); for ΔLog(τ/KA), ERK1/2 phosphorylation, hFPR2-Flpln-CHO: normalized transduction coefficient, reference agonist Cmpd43; for Log(τ/KA), ERK1/2 phosphorylation, hFPR2-Flpln-CHO: transduction coefficient
# From the text: cDNDA construct and generation of stable cell lines: cDNA in pcDNA3.1^+ encoding the human formyl peptide receptors (FPR) subtypes, hFPR1, hFPR2 and hFPR3 was obtained from Invitrogen. The sequences for 3 hFPR receptors were amplified by PCR and cloned into the Gateway entry vector, pDONR202™, using the BP clonase enzyme mix, according to the manufactures' instructions (Invitrogen Inc, Carlsbad, Calif., USA). All hFPR receptors constructs in pDONR201™ were subsequently transfected into the pEF5/FRT/V5/dest vector using the LR clonase enzyme mix (Invitrogen). Receptor constructs (pEF5/FRT/V5/dest) were used to transfect FIp-In CHO cells as described previously (Valant C et al., PNAS, 2014). Cells were selected using 500 μg/mL hydromycin to generate cell lines stably expressing each receptor construct. Cells were maintained and cultured in high glucose DMEM supplemented with 10% FBS, 16 mM HEPES and 500 μg/mL hydromycin at 37° C. under a humidified atmosphere containing 5% CO2.
# In the various assays described below, cells were plated into 96-well transparent cell culture plates at 4×10^4 cells per well, cultured overnight in serum-free media at 37° C. in 5% CO2.
# Measurement of extracellular signal regulated kinase 1 and 2 phosphorylation (pERK1/2): Initial ERK1/2 phosphorylation at Thr202/Tyr204 time-course experiments were performed to determine the time at which ERK1/2 phosphorylation was maximal after stimulation by each agonist. Cells were seeded onto transparent 96-well cell culture plates at 4×10^4 cells per well. After 6 h, cells were washed once with PBS, and then incubated in serum-free DMEM overnight, to allow FBS-stimulated phosphorylated ERK1/2 levels to subside. […] 10% (v/v) FBS was used as a positive control, with vehicle controls also included. The reaction was terminated by removal of study drugs and lysis of cells with 100 μL of SureFire lysis buffer (TGR Biosciences). Cell were lysed in SureFire lysis buffer and transferred to 384-well opaque proxiplates. Under low-light conditions, a 1:120 (v:v) dilution of AlphaScreen beads (both acceptor and donor):Surefire reaction buffer was prepared, which was mixed with the activation buffer in a ratio of 6:1 (v:v), respectively. Plates were incubated in the dark at 37° C. for 1 h before the fluorescence signal was measured by a Fusion-α plate reader (PerkinElmer Life and Analytical Sciences, Foster city, CA, USA) with standard AlphaScreen settings. Data were normalized to the maximal response elicited by 10% (v/v) FBS at the same time point.
# Receptor mediated pERK1/2 levels were determined using the AlphaScreen™ ERK1/2 SureFire™ kit, as described previously (Keov, P et al., 2014). For all experiments, 10% FBS was used as internal positive control to stimulate pERK1/2, and which the maximum responses were used for normalization of data, whilst vehicle was used as negative control.
# Data analysis: All data were analysed using GraphPad Prism 6.0 (GraphPad Software, San Deigo, Calif., USA). Where appropriate, concentration-response curves were fitted to derive the maximal agonist effect (Emax), and the ligand potency estimate (pEC50), where Emax is the maximal possible response of the system (not the agonist), basal is the basal level of response in the absence of agonist, and pEC50 is the negative logarithm of the agonist concentration that gives a response halfway between Emax and basal.
# In the present study, FIp-IN CHO cells and Gateway plasmid were obtained from Invitrogen Inc (Carlsbad, Calif., USA). The sequences for all 3 known human FPRs (hFPR1, hFPR2 and hFPR3) were amplified by PCR and cloned into the Gateway entry vector, pDONR202TM, using the BP clonase enzyme mix, according to the manufacturers' instructions. The hFPR pDONR201TM constructs were subsequently transfected into the pEF5/FRT/V5/dest vector using the LR clonase enzyme mix (Invitrogen).
# [1] = Table 2, percentage of ERK1/2 phosphorylation elicited by 10% FBS, read-out: Emax (%), ERK1/2 phosphorylation, hFPR2-Flpln-CHO
# [2] = Table 8, percent of response elicited by 10% FBS, read-out: Emax, ERK1/2 phosphorylation, hFPR2-Flpln-CHO
SMILES,Time of maximal ERK1/2 phosphorylation in hFPR2-CHO cells [min],Emax [1] [%],EC50 (Table 2) [nM],"ΔLog(τ/KA), ERK1/2 phosphorylation, hFPR2-Flpln-CHO (Table 8)",Emax [2] [%],EC50 (Table 8) [nM],"Log(τ/KA), ERK1/2 phosphorylation, hFPR2-Flpln-CHO (Table 8)"
CC(C)C1C(NC(=O)Nc2ccc(Cl)cc2)C(=O)N(c2ccccc2)N1C (stereo not drawn) [BIDI-002],5,95 ± 4,55,0.0,95 ± 4,50.1,7.7 ± 0.2
"CSCC[C@H](NC=O)C(=O)N[C@@H](CC(C)C)C(=O)N[C@@H](Cc1ccccc1)C(=O)O [fMLP, N-formyl-Met-Leu-Phe]",5,68 ± 11,–,−2.3 ± 0.2,68 ± 11,–,5.4 ± 0.1
